According to the NIST ThermoML archive (doi:10.1021/je500594z):

Assays:
[1] = 101 kPa, Liquid; for viscosity: Falling or rolling sphere viscometry; for speed of sound: Sing-around technique in a fixed-path interferometer; for mass density: Vibrating tube method
[2] = xn = mol fraction of the nth substance listed; conditions: 101 kPa, Liquid, x2 = 0; for viscosity: Falling or rolling sphere viscometry; for speed of sound: Sing-around technique in a fixed-path interferometer; for mass density: Vibrating tube method

CCCC[n+]1ccn(C)c1.O=S(=O)([N-]S(=O)(=O)C(F)(F)F)C(F)(F)F
[1]
Conditions | mass density [kg/m3] | speed of sound [m/s] | viscosity [mPa·s]
278.15 K | 1453.69 | 1273.8 | 139.82
298.15 K | 1434.23 | 1227.5 | 51.22
318.15 K | 1415.13 | 1184 | 24.36
338.15 K | 1396.35 | 1142.7 | 13.94

CCO [ethanol]
[1]
Conditions | mass density [kg/m3] | speed of sound [m/s] | viscosity [mPa·s]
278.15 K | 802.39 | 1212.9 | 1.59
298.15 K | 785.32 | 1143.1 | 1.08
318.15 K | 767.84 | 1075.7 | 0.77
338.15 K | 749.54 | 1009.4 | 0.56

CCO [ethanol] + CCCCCC[n+]1ccn(C)c1.O=S(=O)([N-]S(=O)(=O)C(F)(F)F)C(F)(F)F
[2]
Conditions | mass density [kg/m3] | speed of sound [m/s] | viscosity [mPa·s]
278.15 K | 802.39 | 1212.9 | 1.59
298.15 K | 785.32 | 1143.1 | 1.08
318.15 K | 767.84 | 1075.7 | 0.77
338.15 K | 749.54 | 1009.4 | –

CCO [ethanol] + CCn1cc[n+](C)c1.O=S(=O)([N-]S(=O)(=O)C(F)(F)F)C(F)(F)F
[2]
Conditions | mass density [kg/m3] | speed of sound [m/s] | viscosity [mPa·s]
278.15 K | 802.39 | 1212.9 | 1.59
298.15 K | 785.32 | 1143.1 | 1.08
318.15 K | 767.84 | 1075.7 | 0.77
338.15 K | 749.54 | 1009.4 | 0.56

CCCCCC[n+]1ccn(C)c1.O=S(=O)([N-]S(=O)(=O)C(F)(F)F)C(F)(F)F
[1]
Conditions | mass density [kg/m3] | speed of sound [m/s] | viscosity [mPa·s]
278.15 K | 1390.3 | 1274.6 | 211.31
298.15 K | 1371.64 | 1226.8 | 70.46
318.15 K | 1353.31 | 1182 | 30.22
338.15 K | 1335.25 | 1139.3 | –

CCn1cc[n+](C)c1.O=S(=O)([N-]S(=O)(=O)C(F)(F)F)C(F)(F)F
[1]
Conditions | mass density [kg/m3] | speed of sound [m/s] | viscosity [mPa·s]
278.15 K | 1538.23 | 1284.9 | 75.08
298.15 K | 1517.76 | 1240.1 | 32.02
318.15 K | 1497.65 | 1196.6 | 17.32
338.15 K | 1477.86 | 1155.8 | 10.82

CCO [ethanol] + CCCC[n+]1ccn(C)c1.O=S(=O)([N-]S(=O)(=O)C(F)(F)F)C(F)(F)F
[2]
Conditions | mass density [kg/m3] | speed of sound [m/s] | viscosity [mPa·s]
278.15 K | 802.39 | 1212.9 | 1.59
298.15 K | 785.32 | 1143.1 | 1.08
318.15 K | 767.84 | 1075.7 | 0.77
338.15 K | 749.54 | 1009.4 | 0.56
